Test results published in US12116358B2, “Substituted indoles and methods of use thereof” (EPIZYME, INC., priority 2018, dated 2024).
Where two headings read alike, the source gives them in different places.

Experiments:
SETD2(1434-1711) = molecular target: T1, SETD2(1434-1711) (Homo sapiens, UniProt Q9BYW2); assay: SETD2 (1434-1711) assay; type: biochemical; conditions: read-out: SETD2 (1434-1711)
T1 construct: SETD2 (1434-1711) Assay; catalogue N/A
T1 sequence (Q9BYW2 1434-1711): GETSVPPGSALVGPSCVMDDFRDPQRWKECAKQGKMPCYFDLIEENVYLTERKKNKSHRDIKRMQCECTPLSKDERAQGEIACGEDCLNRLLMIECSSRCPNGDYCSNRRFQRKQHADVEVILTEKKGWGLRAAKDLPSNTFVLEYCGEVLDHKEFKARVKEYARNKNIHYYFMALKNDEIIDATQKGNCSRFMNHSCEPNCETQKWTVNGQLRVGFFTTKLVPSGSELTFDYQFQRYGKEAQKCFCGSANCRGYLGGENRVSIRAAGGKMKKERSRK

H3K36me3 in A549 cells = assay: In-Cell Western (ICW) assay of SETD2 inhibitors (A549 assay); type: cell-based, human; conditions: A549 cells, read-out: SETD2 A549
How it was run: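 A549 cells seeded at 4,000/well onto compound and incubated 3 days at 37° C. Methanol-fixed cells stained overnight at 4° C with anti-H3K36me3 (1:1000), then IRDye 800CW secondary with DRAQ5 DNA counterstain. Plates read by Licor imaging at 700 and 800 channels.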

| SMILES | IC50 (SETD2(1434-1711)) [nM] | IC50 (H3K36me3 in A549 cells) [nM] | IC50 (H3K36me3 in A549 cells; Homo sapiens) [nM] |
| --- | --- | --- | --- |
| Cc1ccc(F)c2cc(C(=O)Nc3cccc(N4CCC(CO)(CO)CC4)c3)[nH]c12 [compound 103] | 30 | 200 |  |
| Cc1ccc(F)c2cc(C(=O)Nc3cccc(N4CCC(C)(N(C)C)CC4)c3)[nH]c12 [compound 222] | 20 | 500 |  |
| Cc1ccc(F)c2cc(C(=O)Nc3cccc(N4CCN5C(=O)CCC5C4)c3)[nH]c12 (stereo not drawn) [compound 27] | 20 | 70 |  |
| Cc1ccc(F)c2cc(C(=O)Nc3cccc(C4CCC(N(C)C)C4)c3)[nH]c12 (stereo not drawn) [compound 282] | 40 |  | 1000 |
| CNC(=O)CN1CCCC(NC(=O)c2cc3c(F)ccc(C)c3[nH]2)C1 (stereo not drawn) [compound 384] | > 10000 | > 2000 |  |
| Cc1ccc(F)c2cc(C(=O)Nc3cc(Cl)cc(N4CCC(CCCN5CCOCC5)CC4)c3)[nH]c12 [compound 188] | 20 |  | 400 |
| Cc1ccc(F)c2cc(C(=O)NC3CCCC(N4CCC5(CCC(=O)N5CC(F)(F)F)CC4)C3)[nH]c12 (stereo not drawn) [compound 965] | 20 | 200 |  |
| Cc1cc(CCN2CCN(C)CC2)cnc1C(CCc1ccccc1)NC(=O)c1cc2c(F)ccc(C)c2[nH]1 (stereo not drawn) [compound 414] | 80 | 3200 |  |
| Cc1ccc(F)c2cc(C(=O)NC(C(=O)Nc3ccccc3)c3ccccn3)[nH]c12 (stereo not drawn) [compound 517] | 3700 | 18500 |  |
| CC(=O)N1CCC(N2CCCC(NC(=O)c3cc4c(F)ccc(C)c4[nH]3)C2)CC1 (stereo not drawn) [compound 366] | 3000 |  | > 2000 |
| CCC(=O)N1CCN(C2CCCC(NC(=O)c3cc4c(F)ccc(C)c4[nH]3)C2)CC1C(F)(F)F (stereo not drawn) [compound 1168] | 1300 | > 2000 |  |
| Cc1ccc(F)c2cc(C(=O)NC3CCCC(N4CCC(N(C)C(=O)C5CC5)C4)C3)[nH]c12 (stereo not drawn) [compound 971] | 10 | 100 |  |
| Cc1ccc(F)c2cc(C(=O)Nc3cccc(-c4ccc(OCCO)cc4)c3)[nH]c12 [compound 231] | 100 | 500 |  |
| Cc1cccnc1C(NC(=O)c1cc2cccc(C)c2[nH]1)C1CCC1 (stereo not drawn) [compound 513] | 4000 | 17400 |  |
| CC(=O)N1CCN(c2nccc(NC(=O)c3cc4c(F)ccc(C)c4[nH]3)n2)CC1 [compound 295] | 300 |  | 1100 |
| Cc1ccc(F)c2cc(C(=O)NC3CCCC(c4cncnc4)C3)[nH]c12 (stereo not drawn) [compound 379] | > 10000 | > 2000 |  |
| Cc1ccc(F)c2cc(C(=O)NC3CCCC(N4CCN(C(=O)C(C)C)C(C(F)(F)F)C4)C3)[nH]c12 (stereo not drawn) [compound 1172] | 3100 | > 2000 |  |
| CC(=O)N1[C@H](C)CN(c2cccc(NC(=O)c3cc4c(F)ccc(C)c4[nH]3)c2)C[C@H]1C [compound 214] | 100 | 500 |  |
| Cc1ccc(F)c2cc(C(=O)Nc3cc(Cl)cc(N4CCC(CCCN)CC4)c3)[nH]c12 [compound 246] | 9 | 600 |  |
| Cc1cccnc1C(CCC(=O)NC1CCC(N)CC1)NC(=O)c1cc2cccc(C)c2[nH]1 (stereo not drawn) [compound 579] | 23000 | > 25000 |  |
| Cc1ccc(F)c2cc(C(=O)Nc3cccc(N4CCC(N5CCC(F)(F)CC5)C4)c3)[nH]c12 (stereo not drawn) [compound 153] | 50 |  | 300 |
| Cc1cccc2cc(C(=O)Nc3ccc4ccc(C(=O)N5CCN(C)CC5)cc4c3)[nH]c12 [compound 448] | 900 | 5500 |  |
| CC(=O)N1CCC(c2cc(F)cc(NC(=O)c3cc4c(F)ccc(C)c4[nH]3)c2)C1 (stereo not drawn) [compound 56] | 30 | 100 |  |
| CC(=O)N1CCC2(CC1)CCN(c1cc(F)cc(NC(=O)c3cc4c(F)ccc(C)c4[nH]3)c1)C2 [compound 5] | 8 | 40 |  |
| Cc1ccc(F)c2cc(C(=O)Nc3ccc4ncc(CN(C)C)n4c3)[nH]c12 [compound 536] | 800 | > 25000 |  |

Second part, the molecule after the results:

| IC50 (SETD2(1434-1711)) [nM] | IC50 (H3K36me3 in A549 cells) [nM] | IC50 (H3K36me3 in A549 cells; Homo sapiens) [nM] | SMILES |
| --- | --- | --- | --- |
| 30 | 100 |  | Cc1ccc(F)c2cc(C(=O)Nc3cccc(N4CC5(CCN(CC(F)F)CC5)C4)c3)[nH]c12 [compound 41] |
| 200 | 600 |  | Cc1ccc(F)c2cc(C(=O)Nc3cccc(-c4cn[nH]c4)c3)[nH]c12 [compound 252] |
| 3000 | 14500 |  | Cc1cccnc1C(CC1CC1)NC(=O)c1cc2cccc(C)c2[nH]1 (stereo not drawn) [compound 500] |
| 400 | > 25000 |  | Cc1cccc2cc(C(=O)Nc3ccc4ncncc4c3)[nH]c12 [compound 533] |
| 200 | 1700 |  | Cc1ccc(F)c2cc(C(=O)Nc3cccc(CCO)c3)[nH]c12 [compound 341] |
| 1800 | > 2000 |  | Cc1ccc(F)c2cc(C(=O)NC3CCCC(N4CCN(C(=O)NC5CCOCC5)CC4)C3)[nH]c12 (stereo not drawn) [compound 1170] |
| 30 | 70 |  | CC(=O)N1CCN(C2CCCC(NC(=O)c3cc4c(F)ccc(C)c4[nH]3)C2)CC1C(F)(F)F (stereo not drawn) [compound 1018] |
| 20 |  | 20 | Cc1ccc(F)c2cc(C(=O)N[C@@H]3CCC[C@H](N4CCN5C(=O)CCC[C@@H]5C4)C3)[nH]c12 [compound 1044] |
| 50 |  | 300 | Cc1ccc(F)c2cc(C(=O)Nc3cccc(-c4cccnc4)c3)[nH]c12 [compound 137] |
| 40 | 500 |  | Cc1ccc(F)c2cc(C(=O)Nc3cccc(N4CCN5CCCC5C4)c3)[nH]c12 (stereo not drawn) [compound 220] |
| 50 | 500 |  | Cc1ccc(F)c2cc(C(=O)Nc3cccc(N4CCn5ccnc5C4)c3)[nH]c12 [compound 233] |
| 30 |  | 100 | CC[C@H]1CN([C@H]2CCC[C@@H](NC(=O)c3cc4c(F)ccc(C)c4[nH]3)C2)CCN1C(C)=O [compound 1085] |
| 900 | 3400 |  | Cc1ccc(F)c2cc(C(=O)Nc3cccc(N4CCN(C(C)c5ccccc5)CC4)c3)[nH]c12 (stereo not drawn) [compound 417] |
| 2300 | > 2000 |  | Cc1ccc(F)c2cc(C(=O)NC3CCCC(N4CCN(C5CC5)C(=O)C4)C3)[nH]c12 (stereo not drawn) [compound 978] |
| 40 |  | 300 | Cc1ccc(F)c2cc(C(=O)Nc3cccc(N4CCC(N(C)CCF)C4)c3)[nH]c12 (stereo not drawn) [compound 130] |
| 400 | 5200 |  | Cc1ccc(F)c2cc(C(=O)Nc3cccc(-c4cc(N)n[nH]4)c3)[nH]c12 [compound 444] |
| 10 |  | 100 | CC(=O)N1CCN([C@H]2CCC[C@@H](NC(=O)c3cc4c(F)ccc(C)c4[nH]3)C2)C[C@@H]1CO [compound 1099] |
| 30 |  | 100 | Cc1ccc(F)c2cc(C(=O)Nc3cccc(-c4nnco4)c3)[nH]c12 [Cpd. No. 60, N-(3-(1,3,4-oxadiazol-2-yl)phenyl)-4-fluoro-7-methyl-1H-indole-2-carboxamide] |

| IC50 (SETD2(1434-1711)) [nM] | IC50 (H3K36me3 in A549 cells) [nM] | IC50 (H3K36me3 in A549 cells; Homo sapiens) [nM] | SMILES |
| --- | --- | --- | --- |
| 200 |  | 900 | Cc1ccc(F)c2cc(C(=O)Nc3cccc(-n4cnnc4)c3)[nH]c12 [compound 281] |
| 40 |  | 300 | Cc1ccc(F)c2cc(C(=O)N[C@@H]3CCC[C@H](c4cccnc4)C3)[nH]c12 [compound 903] |
| 40 | 400 |  | CC(=O)N1CC2CCC(C1)N2C1CCCC(NC(=O)c2cc3c(F)ccc(C)c3[nH]2)C1 (stereo not drawn) [compound 952] |
| 10 |  | 100 | Cc1ccc(F)c2cc(C(=O)N[C@@H]3CCC[C@H](N4CCC(N(C)C(=O)CO)C4)C3)[nH]c12 (stereo partly drawn) [compound 934] |
| 200 | 5000 |  | Cc1cccc2cc(C(=O)Nc3cccc(N4CCC(NC(=O)CN)CC4)c3)[nH]c12 [compound 439] |
| 90 |  | 300 | Cc1ccc(F)c2cc(C(=O)Nc3cccc(-n4cncn4)c3)[nH]c12 [compound 162] |
| > 10000 | > 2000 |  | CC(=O)N(C)CCCN1CCCC(NC(=O)c2cc3c(F)ccc(C)c3[nH]2)C1 (stereo not drawn) [compound 389] |
| 8 |  | 40 | COCC(=O)N(C)[C@H]1CCN([C@H]2CCC[C@@H](NC(=O)c3cc4c(F)ccc(C)c4[nH]3)C2)C1 [compound 1043] |
| 1000 | > 2000 |  | Cc1ccc(F)c2cc(C(=O)NC3CCCC(N4CCN5C(=O)OCC5C4)C3)[nH]c12 (stereo not drawn) [compound 1134] |
| 105000 |  | > 25000 | Cc1cccc2cc(C(=O)N[C@@H](CO)c3ccccc3)[nH]c12 [compound 616] |
| 100 | 3100 |  | Cc1cc(C(=O)NC2CCN(C)CC2)cnc1C(NC(=O)c1cc2c(F)ccc(C)c2[nH]1)C1CC1 (stereo not drawn) [compound 412] |
| 200 |  | 600 | Cc1ccc(F)c2cc(C(=O)Nc3cccc(-c4ncon4)c3)[nH]c12 [compound 249] |
| 4100 | 10300 |  | Cc1cccc2cc(C(=O)NCC(C)c3ccccc3N3CCOCC3)[nH]c12 (stereo not drawn) [compound 483] |
| 2900 | > 25000 |  | Cc1cc(C(=O)O)cnc1C(NC(=O)c1cc2c(F)ccc(C)c2[nH]1)C1CC1 (stereo not drawn) [compound 544] |
| 700 |  | 700 | CC(=O)Nc1cccc(-c2cccc(NC(=O)c3cc4c(F)ccc(C)c4[nH]3)c2)c1 [compound 263] |
| 50 |  | 200 | Cc1ccc(F)c2cc(C(=O)Nc3cccc(N4CCCC4=O)c3)[nH]c12 [compound 118] |
| 10 |  | 400 | Cc1ccc(F)c2cc(C(=O)Nc3cccc(N4CCC5(CC4)CNC5)c3)[nH]c12 [compound 179] |
